Source: US9999222B2, “Herbicidal combination comprising azines” (BASF SE, priority 2014, dated 2018)
Like-named read-outs stand apart in the source and are kept apart here.

Experiments:
Assay in all cases: Greenhouse test, pre-emergence treatment
GERPU = assay type: in vivo, Geranium pusillum; settings: Geranium pusillum, pre-emergence, 480 h, pre-emergence, read-out: observed % activity 20 DAT
Method in brief: (§1)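 Damage was rated on a 0-100 scale, with 100 meaning no emergence or full destruction of aerial parts. Observed combination effects were set against the additive Colby expectation E=X+Y−(X·Y/100). Spray liquor was water-based, from 10% emulsion concentrates, applied pre-emergence right after sowing in loamy sand (about 3.0% humus). Plants were held at 10-25 °C or 20-35 °C for 2 to 4 weeks.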

BRADC = assay type: in vivo, Brachiaria decumbens; settings: Urochloa decumbens, pre-emergence, 480 h, pre-emergence, read-out: observed % activity 20 DAT
Method in brief: as §1

PHACA = assay type: in vivo, Phalaris canariensis; settings: pre-emergence, pre-emergence
Method in brief: as §1

ALOMY = assay type: in vivo, Alopecurus myosuroides; settings: Alopecurus myosuroides, pre-emergence, 480 h, pre-emergence, read-out: observed % activity 20 DAT
Method in brief: as §1

EPHHL = assay type: in vivo, Euphorbia heterophylla; settings: Euphorbia heterophylla, pre-emergence, 480 h, pre-emergence, 250 g ai/ha; read-out: observed % activity 20 DAT
Method in brief: as §1

LOLMU = assay type: in vivo, Lolium multiflorum; settings: Lolium multiflorum, pre-emergence, 480 h, pre-emergence, read-out: observed % activity 20 DAT
Method in brief: as §1

SETFA = assay type: in vivo, Setaria faberi
Method in brief: as §1

POLCO = assay type: in vivo, Polygonum convolvulus; settings: Fallopia convolvulus, 480 h, pre-emergence, read-out: observed % activity 20 DAT
Method in brief: as §1

KCHSC = assay type: in vivo, Kochia scoparia; settings: Bassia scoparia, 480 h, pre-emergence, read-out: observed % activity 20 DAT
Method in brief: as §1

ECHCG = assay type: in vivo, Echinocloa crus-galli; settings: Echinochloa crus-galli, 480 h, use rate 31.25 g ai/ha, read-out: observed % activity 20 DAT
Method in brief: as §1

AVEFA = assay type: in vivo, Avena fatua; settings: pre-emergence
Method in brief: as §1

SIDRH = assay type: in vivo, Sida rhombifolia; settings: pre-emergence, 250 g ai/ha
Method in brief: as §1

Molecule `COCC(C)N(C(=O)CCl)c1c(C)csc1C` (stereo not drawn) [Dimethenamid, dimethenamid] has a pest or weed control at 250 g/ha (GERPU; 250 g ai/ha) of 98%, an inhibition at 15.625 g/ha (GERPU; use rate 15.625 g ai/ha) of 50% and an inhibition at 31.25 g/ha (GERPU; use rate 31.25 g ai/ha) of 70%. For the same molecule, the pest or weed control at 62.5 g/ha (GERPU; use rate 62.5 g ai/ha, 20 DAT) was 85%, the inhibition at 62.5 g/ha (GERPU; use rate 62.5 g ai/ha) was 85% and the pest or weed control at 125 g/ha (GERPU; use rate 125 g ai/ha, 20 DAT) was 95%. For the same molecule, the pest or weed control at 125 g/ha (BRADC; 125 g ai/ha) was 98%, the pest or weed control at 250 g/ha (BRADC; 250 g ai/ha) was 98% and the pest or weed control at 500 g/ha (BRADC; 500 g ai/ha) was 98%. It also gave a pest or weed control at 125 g/ha (PHACA; Phalaris canariensis, 480 h, 125 g ai/ha, read-out: observed % activity 20 DAT) of 70%, a pest or weed control at 500 g/ha (PHACA; Phalaris canariensis, 480 h, 500 g ai/ha, read-out: observed % activity 20 DAT) of 98% and a pest or weed control at 15.625 g/ha (PHACA; Phalaris canariensis, 480 h, use rate 15.625 g ai/ha, 20 DAT, read-out: observed % activity 20 DAT) of 10%. It also gave a pest or weed control at 31.25 g/ha (PHACA; Phalaris canariensis, 480 h, use rate 31.25 g ai/ha, 20 DAT, read-out: observed % activity 20 DAT) of 55%, an inhibition at 31.25 g/ha (PHACA; Phalaris canariensis, 480 h, use rate 31.25 g ai/ha, read-out: observed % activity 20 DAT) of 55% and a pest or weed control at 62.5 g/ha (PHACA; Phalaris canariensis, 480 h, use rate 62.5 g ai/ha, 20 DAT, read-out: observed % activity 20 DAT) of 65%. For the same molecule, the pest or weed control at 125 g/ha (PHACA; Phalaris canariensis, 480 h, use rate 125 g ai/ha, 20 DAT, read-out: observed % activity 20 DAT) was 80%, the inhibition at 125 g/ha (PHACA; Phalaris canariensis, 480 h, use rate 125 g ai/ha, read-out: observed % activity 20 DAT) was 80% and the “observed % activity 20 DAT” value (PHACA; 125 g ai/ha) was 70%. It also gave a pest or weed control at 125 g/ha (ALOMY; 125 g ai/ha) of 25%, a pest or weed control at 500 g/ha (ALOMY; 500 g ai/ha) of 75% and a pest or weed control at 62.5 g/ha (ALOMY; use rate 62.5 g ai/ha, 20 DAT) of 0%. The inhibition at 62.5 g/ha (ALOMY; use rate 62.5 g ai/ha) was 0%, the inhibition at 125 g/ha (ALOMY; use rate 125 g ai/ha) was 35% and the pest or weed control at 250 g/ha (EPHHL) was 25%. The pest or weed control at 125 g/ha (LOLMU; 125 g ai/ha) was 85%, the pest or weed control at 250 g/ha (LOLMU; 250 g ai/ha) was 98% and the pest or weed control at 15.625 g/ha (LOLMU; use rate 15.625 g ai/ha, 20 DAT) was 0%. The inhibition at 31.25 g/ha (LOLMU; use rate 31.25 g ai/ha) was 55%, the pest or weed control at 62.5 g/ha (LOLMU; use rate 62.5 g ai/ha, 20 DAT) was 85% and the inhibition at 62.5 g/ha (LOLMU; use rate 62.5 g ai/ha) was 85%. The pest or weed control at 125 g/ha (LOLMU; use rate 125 g ai/ha, 20 DAT) was 95%, the inhibition at 125 g/ha (LOLMU; use rate 125 g ai/ha) was 95% and the inhibition at 15.625 g/ha (SETFA; Setaria faberi, 480 h, use rate 15.625 g ai/ha, read-out: observed % activity 20 DAT) was 85%. The inhibition at 31.25 g/ha (SETFA; Setaria faberi, 480 h, use rate 31.25 g ai/ha, read-out: observed % activity 20 DAT) was 98%, the “observed % activity 20 DAT” value (SETFA; use rate 31.25 g ai/ha, 20 DAT) was 98% and the pest or weed control at 31.25 g/ha (POLCO; use rate 31.25 g ai/ha, 20 DAT) was 0%. It also gave a pest or weed control at 62.5 g/ha (POLCO; use rate 62.5 g ai/ha, 20 DAT) of 0%, a pest or weed control at 125 g/ha (POLCO; use rate 125 g ai/ha, 20 DAT) of 0% and an inhibition at 31.25 g/ha (POLCO; use rate 31.25 g ai/ha) of 0%. It also gave an inhibition at 62.5 g/ha (POLCO; use rate 62.5 g ai/ha) of 0%, an inhibition at 125 g/ha (POLCO; use rate 125 g ai/ha) of 0% and a pest or weed control at 250 g/ha (KCHSC; 250 g ai/ha) of 75%. It also gave a pest or weed control at 31.25 g/ha (KCHSC; use rate 31.25 g ai/ha, 20 DAT) of 0%, a pest or weed control at 62.5 g/ha (KCHSC; use rate 62.5 g ai/ha, 20 DAT) of 0% and a pest or weed control at 125 g/ha (KCHSC; use rate 125 g ai/ha, 20 DAT) of 0%. The inhibition at 31.25 g/ha (KCHSC; use rate 31.25 g ai/ha) was 0%, the inhibition at 62.5 g/ha (KCHSC; use rate 62.5 g ai/ha) was 0% and the inhibition at 125 g/ha (KCHSC; use rate 125 g ai/ha) was 0%. For the same molecule, the pest or weed control at 31.25 g/ha (ECHCG; 20 DAT) was 98%, the inhibition at 31.25 g/ha (ECHCG) was 98% and the “observed % activity 20 DAT” value (AVEFA; 55 g ai/ha) was 95%. For the same molecule, the “observed % activity 20 DAT” value (AVEFA; 250 g ai/ha) was 85%, the pest or weed control at 250 g/ha (SIDRH; Sida rhombifolia, 480 h, read-out: observed % activity 20 DAT) was 70% and the “observed % activity 20 DAT” value (SIDRH) was 70%.
